What all share (assay type): in vivo
One experiment has as its system Plutella xylostella. The experiment is described as follows: Test for control efficacy against Plutella xylostella. Conditions: alone. An excerpt:
Test for Control Efficacy Against Plutella xylostella
Brassica oleracea var. capitata (variety: YR Seitoku) seedlings were planted in a glass greenhouse, and after reaching the 12- to 15-leaf stage, the seedlings were inoculated with 3rd-instar larvae of Plutella xylostella. The number of surviving larvae per three plants before agrochemical treatment was counted. A mixed formulation of compound [1-2] and flubendiamide (prepared according to Formulation Example 5) and each individual agrochemical were separately diluted to predetermined concentrations in water and applied to the Brassica oleracea var. capitata plants. The number of surviving larvae was counted at 2 and 6 days after the application, and the control efficacy was calculated by the equation 5 shown below. In addition, the expected value E was calculated by Colby's equation as described in Test Example 1.
Control efficacy (%)=100−{(Ta×Cb)/(Tb×Ca)}×100 [Math. 5]
Ta=number of survivors after agrochemical treatment in treatment plot
Tb=number of survivors before agrochemical treatment in treatment plot […]
As a result of the test for control efficacy against Plutella xylostella, the control efficacy of the composition composed of compound […] was greater than the expected value E calculated by Colby's equation from the control efficacy of the individual compounds. […]

In experiment [1] the test system is tomato late blight fungus Phytophthora infestans. Conditions: 3 ppm, alone; rating scale of Test Example 2.
A further experiment concerns Laodelphax striatellus. The experiment is described as follows: Test for control efficacy against Laodelphax striatellus. As to conditions: alone, 30 days after the agrochemical treatment. An excerpt: Test for Control Efficacy Test Against Laodelphax striatellus
Adults of the test insect were released onto rice plants (variety: Kinmaze, 95 days after transplantation) grown in individual 2-L pots (8 females and 5 males per pot). At 11 days after the insect release (when hatched larvae were observed), mixed formulations of compound [1-7] and other agrochemicals and each individual agrochemical (prescribed effective doses) were separately applied. After air-drying and at 10 days after the agrochemical treatment, adults of the test insect were additionally released onto the rice plants (8 females and 5 males per pot). At 30 days after the agrochemical treatment, the number of survivors was measured, and the control value was calculated by equation 6. In addition, the expected value E for the mixed use was calculated by Colby's equation as described in Test Example 1. When the actual control efficacy of combined treatment with two different agrochemicals is greater than the expected value E, the combination can be regarded as having synergistic effect.
Control value (%)=(1−number of survivors/number of survivors in control plot)×100 [Math. 6]
Assuming that the control value for “no grade” is 49%, when the control values of the two different agrochemicals are both 49%, the expected value E calculated by Colby's equation is as follows: E=(49+49)−(49×49/100)=73.99. The control value of 73.99 corresponds to grade C. Therefore, when both the agrochemicals are graded as no grade, the expected value is C.

Experiment [2] has as its system cucumber anthracnose fungus Colletotrichum orbiculare. Conditions: 3 ppm, alone; rating scale of Test Example 1.
Experiment [3] deals with leaf rust fungus Puccinia recondita. The experiment is described as follows: Test for control efficacy against wheat leaf rust. As to conditions: alone, scale of 0 to 10. As for the experimental part: Test for Control Efficacy Against Wheat Leaf Rust
The agrochemical formulations diluted to predetermined concentrations were applied to wheat plants at a predetermined amount with a spray gun. After air-drying, the wheat plants were spray-inoculated with a spore suspension of the leaf rust fungus Puccinia recondita (1.0×10^7 spores/mL). After that, the wheat pots were kept in a greenhouse under light conditions at 15° C. and 100% RH to induce the development of the disease. At 7 days after the inoculation, the disease area percentage was indexed on a scale of 0 to 10 to evaluate the control efficacy.

Take `COC(=O)N(OC)c1ccccc1COc1ccn(-c2ccc(Cl)cc2)n1` [Pyraclostrobin 25EC, pyraclostrobin]: the Grade result in the experiment with Plutella xylostella (10 ppm) is given as “No grade (less than 50%)”; in the experiment with Plutella xylostella (50 ppm), “A (100%)”; with Laodelphax striatellus (10 ppm), “No grade (less than 50%)”; in the experiment with Laodelphax striatellus (50 ppm) it was “A (100%)”. Moreover, the Control value in experiment [1] was 4.0; in experiment [2], 7.0; in experiment [3] (1 ppm), 5.0; in experiment [3] (3 ppm), 9.0.

The values are drawn from US20210298299A1 (priority 2018, published 2021).
